Measured values published in patent US8016810B2, “Transdermal delivery system for cosmetic agents” (TransPharma Medical Ltd., priority 2003, dated 2011).

Columns and labels:
[1] = relative to hydroquinone; cited from earlier work
[2] = In vitro skin permeation study, flow-through Franz diffusion cell, ViaDerm (micro-channel) treated vs intact skin; type: in vitro ADME, porcine; conditions: for Total permeated amount: after 24 hr
Procedure: The density of the microelectrode array was 100 microelectrodes/cm^2. […] The permeability of the cosmetic agents through porcine skin was measured in vitro with a flow-through Franz diffusion cell system (Laboratory Glass Apparatus, Berkeley, Calif.). […] Skin micro-channeling was performed in cells defined as VD (ViaDerm) application group, and then TEWL was measured again to control the operation. The skin pieces were placed on the receiver chambers with the stratum corneum facing upwards, and the donor chambers were clamped in place. […] Samples from the acceptor solutions were collected into tubes (using a fraction collector, Retriever IV, ISCO, Lincoln, Nebr., USA) at predetermined times for up to 24 hr period. The samples were kept at 4° C. until analyzed by HPLC. Samples from the acceptor solutions (10-50 μl) were injected into HPLC system (Waters) equipped with a pre-packed LiChrospher C18 column (150×3.9 mm, 5 μm; Waters), and a UV detector. […] The Salicylic acid samples were separated using an isocratic mobile phase containing 5% methanol 25% Acetonitrile and 0.01 mol/l KH2PO4/H3PO4 buffer pH 2.3 in H2O, at a flow rate 1 ml/min. The detection of salicylic acid was performed at a wavelength of 237 nm. […] The detection of hydroquinone was performed at a wavelength of 280 nm. […] The permeation efficacy is defined as the % of penetrated agent out of total amount of the agent applied on the skin.

[3] = over a 4 to 6 month period, systemic; cited from earlier work
[4] = ViaDerm treated skin, after 24 h, 0.25 ml solution in donor chamber
[5] = ViaDerm treated skin, 0.25 ml solution in donor chamber
[6] = after 3 h, 0.25 ml solution in donor chamber
[7] = after 24 h, 0.25 ml solution in donor chamber
[8] = control untreated skin, 0.25 ml solution in donor chamber
[9] = untreated skin, after 24 h, 0.25 ml solution in donor chamber

| SMILES | Quantity required to achieve a similar skin whitening effect, compared to the quantity of hydroquinone used [1] | Permeation efficacy [2, 4] [%] | Total permeated amount [2, 5] [μg/cm^2] | Difference in permeated amount, ViaDerm treated compared to untreated skin [2, 6] [fold] | Difference in permeated amount, ViaDerm treated compared to untreated skin [2, 7] [fold] | Total permeated amount [2, 8] [μg/cm^2] | Permeation efficacy [2, 9] [%] | further results |
| --- | --- | --- | --- | --- | --- | --- | --- | --- |
| OC[C@H]1O[C@@H](Oc2ccc(O)cc2)[C@H](O)[C@@H](O)[C@@H]1O [arbutin] | over 100 times | – | – | – | – | – | – | – |
| O=C(O)c1ccccc1O [salicylic acid] | – | 62 | 820 | 17 | 10 | 84 | 4 | – |
| Cn1c(=O)c2c(ncn2C)n(C)c1=O [caffeine] | – | – | – | – | – | – | – | Caffeine flux (plateau) ([2]; ViaDerm pretreated skin, after 6 hours, 0.25 ml of 1% w/v aqueous solution): 18.5 ± 2.2 µg/mL; Permeation efficacy ([2]; ViaDerm pretreated skin, after 16 hours, 0.25 ml of 1% w/v solution): 37.1±4.8%; Permeation efficacy, ViaDerm in comparison to untreated skin ([2]; after 16 hours, 0.25 ml of 1% w/v solution): 10 fold; Caffeine flux ([2]; control untreated skin, after 6 hours, 0.25 ml of 1% w/v aqueous solution): 0.4 ± 0.3 µg/mL; Cumulative permeability through ViaDerm treated skin compared to intact skin ([2]; result in words (FIGS. 1, 2, 4)): enhanced; Permeation efficacy ([2]; untreated skin, after 16 hours, 0.25 ml of 1% w/v solution): 3.6±2.6% |
| Oc1ccc(O)cc1 [hydroquinone] | – | 27 | 1824 | 39 | 29 | 62 | 1 | – |
| O=C1O[C@H]([C@@H](O)CO)C(O)=C1O [ascorbic acid] | 17 times | – | – | – | – | – | – | – |
| CC1=C(/C=C/C(C)=C/C=C/C(C)=C\C(=O)O)C(C)(C)CCC1 [isotretinoin] | – | – | – | – | – | – | – | Acne cleared by treatment [3]: ≤ 85% |
